In publication PMC9930359, “Cytotoxicity of the methanol extracts and compounds of Brucea antidysenterica (Simaroubaceae) towards multifactorial drug-resistant human cancer cell lines” (BMC Complementary Medicine and Therapies, 2023):

Tests used:
[1] = test system: CCRF-CEM leukemia cells; experiment: Resazurin reduction assay (RRA), cytotoxicity; assay type: cell-based; details: Homo sapiens, 72 h
Text: (§2) In this work, 9 cancer cell lines with various drug resistance patterns as well as AML12 hepatocytes as normal control cell line were used. […] The AML12 hepatocytes were used for the comparison of the activities of the samples with HepG2 [40]. […] The RPMI-1640 medium was used for the culture of CCRF-CEM and CEM/ADR5000 cells whilst DMEM medium was used for carcinoma cells. The culture media were supplemented (complete medium) with 10% fetal bovine serum and 1% penicillin/streptomycin (Invitrogen, Eggenstein, Germany). […] To maintain the resistance phenotype of the resistant carcinoma cell lines such as MDA-MB-231/BCRP and HCT116 p53^−/−, and U87MG.ΔEGFR cells, the complete DMEM medium containing geneticin at 800 ng/ml and 400 µg/ml, respectively were used [41, 42].
(§3) Cells were cultured in a standard condition consisted of a humidified 5% CO2 atmosphere and an incubation temperature of 37 °C. The tested concentration ranges were 0.63—80 µg/mL for the botanicals and 0.78—100 µM for phytochemicals. The incubation time of the treated cells was 72 h, and the fluorescence was measured with Infinite M2000 Pro™ plate reader (Tecan, Crailsheim, Germany). The wavelengths used were 544 nm for the excitation and 590 nm for the emission. […] The degree of resistance (D.R.) was set as the ratio of the IC50 values of samples in the resistant cell line vs that of corresponding sensitive cell line. The selectivity index (S.I.) was the ratio of the IC50 value of AML12 hepatocytes vs. that of HepG2 cells [13, 48].

[2] = test system: CEM/ADR5000 cells; experiment: Resazurin reduction assay (RRA), cytotoxicity; assay type: cell-based, human; details: for IC50: Homo sapiens, CEM/ADR5000, 72 h; for Degree of resistance (D.R.): ratio of IC50 CEM/ADR5000 vs CCRF-CEM
Method: (§4) The RPMI-1640 medium was used for the culture of CCRF-CEM and CEM/ADR5000 cells whilst DMEM medium was used for carcinoma cells. The culture media were supplemented (complete medium) with 10% fetal bovine serum and 1% penicillin/streptomycin (Invitrogen, Eggenstein, Germany). […] To maintain the resistance phenotype of the resistant carcinoma cell lines such as MDA-MB-231/BCRP and HCT116 p53^−/−, and U87MG.ΔEGFR cells, the complete DMEM medium containing geneticin at 800 ng/ml and 400 µg/ml, respectively were used [41, 42].
as §3

[3] = test system: MDA-MB-231-pcDNA cells; experiment: Resazurin reduction assay (RRA), cytotoxicity; assay type: cell-based; details: Homo sapiens, 72 h
Text: as §2, §3

[4] = test system: HCT116 p53+/+ cells; experiment: Resazurin reduction assay (RRA), cytotoxicity; assay type: cell-based; details: Homo sapiens, HCT-116, 72 h
Text: as §2, §3

[5] = test system: HCT116 p53−/− cells; experiment: Resazurin reduction assay (RRA), cytotoxicity; assay type: cell-based, human; details: for IC50: Homo sapiens, HCT-116, HCT116 p53−/−, 72 h; for Degree of resistance (D.R.): ratio of IC50 HCT116 p53−/− vs HCT116 p53+/+
Method: as §4, §3

[6] = test system: U87MG cells; experiment: Resazurin reduction assay (RRA), cytotoxicity; assay type: cell-based; details: Homo sapiens, U-87 MG, 72 h
Text: as §2, §3

[7] = test system: U87MG.ΔEGFR cells; experiment: Resazurin reduction assay (RRA), cytotoxicity; assay type: cell-based, human; details: for IC50: Homo sapiens, U87MG.ΔEGFR, 72 h
Method: as §4, §3

[8] = test system: HepG2 cells; experiment: Resazurin reduction assay (RRA), cytotoxicity; assay type: cell-based; details: Homo sapiens, HepG2, 72 h
Text: as §2, §3

[9] = test system: AML12 hepatocytes; experiment: Resazurin reduction assay (RRA), cytotoxicity on normal hepatocytes; assay type: cell-based; details: for IC50: Mus musculus, AML12 normal hepatocytes, 72 h; for Selectivity index (S.I.): ratio of IC50 in AML12 vs IC50 in HepG2 cells
Method: as §4, §3

[10] = test system: MDA-MB-231-BCRP cells; experiment: Resazurin reduction assay (RRA), cytotoxicity; details: Homo sapiens, MDA-MB-231/BCRP, 72 h
Method: as §4, §3

[11] = test system: PC-3; set-up: method as in PMID 31816856; details: on PC-3 ref 30; cited from earlier work
[12] = test system: CCRF-CEM cells; experiment: Mitochondrial membrane potential (MMP), JC-1 staining, flow cytometry; assay type: cell-based, human; details: 10 µM, 24 h
Method: (§1) The modification of the MMP as well as the ROS levels after the application of BAL, and flavonolignan 2 at ¼ IC50, ½ IC50, IC50, and 2 × IC50 to CCRF-CEM cells (1 × 10^6) was performed by flow cytometry. DMSO was used as solvent control while valinomycin served as a positive control. The cells were incubated for 24 h and further stained for 30 min with JC-1 [45] and measured (1 × 10^4 cells) in an LSR-Fortessa FACS analyzer (Becton–Dickinson). For ROS determination, CCEF-CEM cells were similarly treated BAL, the flavonolignan 2, hydrogen peroxide (H2O2; positive control), DMSO (solvent control) as in the MMP analysis, then incubated for 24 h. They were further stained with H2DCFH-DA and measured (1 × 10^4 cells) in an LSR-Fortessa FACS analyzer.

[13] = test system: CCRF-CEM cells; experiment: Reactive oxygen species (ROS), H2DCFH-DA staining, flow cytometry; assay type: cell-based, human; details: 50 µM, 24 h
Method: as §1

Row | Compound | IC50 [1] [µM] | IC50 [2] [µM] | Degree of resistance (D.R.) [2] | IC50 [3] [µM] | IC50 [4] [µM] | IC50 [5] [µM] | Degree of resistance (D.R.) [5] | IC50 [6] [µM] | IC50 [7] [µM] | IC50 [8] [µM] | IC50 [9] [µM] | Selectivity index (S.I.) [9] | IC50 [10] [µM] | also measured
1 | O=c1ccc2nccc3c4ccccc4n1c23 [Compound 5, canthin-6-one] | 44.2 ± 3.52 | > 100 | > 2.26 | > 100 | 24.7 ± 2.16 | 21 ± 1.72 | 0.85 | 19.6 ± 1.55 | 21.1 ± 1.49 | 26.1 ± 1.63 | > 100 | > 3.83 | > 100 | Degree of resistance (D.R.) ([7]; ratio of IC50 U87.MGΔEGFR vs U87.MG): 1.08
2 | C[C@@H](O)C1CCC2C3CC=C4C[C@@H](O[C@@H]5OC[C@H](O)[C@H](O)[C@H]5O)CC[C@]4(C)C3CC[C@@]21C (stereo partly drawn) [Compound 3, (20R)-O-(3)-α-L-arabinopyranosyl-pregn-5-en-3β,20-diol] | 28.4 ± 1.76 | 73.9 ± 5.32 | 2.60 | > 100 | > 100 | 50.5 ± 3.81 | < 0.50 | > 100 | > 100 | 85.2 ± 5.7 | > 100 | > 1.17 | > 100 | melting point: 258 to 260 °C
3 | bruceacanthinones A |  |  |  |  |  |  |  |  |  |  |  |  |  | IC50 [11]: 196 µM
4 | CC(C)[C@@H]1NC(=O)[C@H](C)OC(=O)[C@@H](C(C)C)NC(=O)[C@@H](C(C)C)OC(=O)[C@H](C(C)C)NC(=O)[C@H](C)OC(=O)[C@@H](C(C)C)NC(=O)[C@@H](C(C)C)OC(=O)[C@H](C(C)C)NC(=O)[C@H](C)OC(=O)[C@@H](C(C)C)NC(=O)[C@@H](C(C)C)OC1=O [valinomycin, reference compound] |  |  |  |  |  |  |  |  |  |  |  |  |  | cells with MMP disrupted [12]: 16.8%; cells with MMP loosed [12]: 44.5%; healthy cells (intact MMP) [12]: 38.8%
5 | OO [Compound H2O2, hydrogen peroxide, reference compound] |  |  |  |  |  |  |  |  |  |  |  |  |  | ROS levels in treated cells [13]: 94.30%
